Results from patent publication US4044150A, “Antihypertensive 4'-[1-hydroxy-2-[(1-phenoxy ethyl)-amino]ethyl]methanesulfonanilide and salts thereof and therapeutic use” (Mead Johnson & Company, priority 1976, dated 1977).
Entries after “also recorded” stand apart in the source; their conditions may differ.

Legend:
[1] = test system: Anesthetized Dog Challenged with Isoproterenol; test: inherent cardiac and blood pressure effects in the isoproterenol challenged intact anesthetized dog; format: in vivo; conditions: for Absolute Change From Control in Contractile Force (CF) / Absolute Change From Control in Heart Rate (HR) / Absolute Change From Control in Mean Arterial Blood Pressure (MABP): decrease
Method: One such test involves the measurement of inherent cardiac and blood pressure effects in the isoproterenol challenged intact anesthetized dog. In this test model, dogs are anesthetized with a mixture of phenobarbital sodium (15 mg./kg.) and barbital sodium (225 mg./kg.) intravenously and are vagotomized bilaterally. Heart rate, contractile force and diastolic blood pressure are continuously recorded with alterations in these responses (e.g. tachycardia) produced by intravenously administered isoproterenol determined before and after injection of increasing doses of the test compound. The test substance is administered to separate groups of dogs at cumulative doses of 0.1, 0.3, 1, 3, and 10 mg./kg. body weight with each dose of the test substance infused slowly over a period of 3-5 minutes. After completing infusion of the test substance, a 10 -minute equilibrium period is allowed for drug-receptor interaction and stabilization of the cardiovascular system before a series of isoproterenol challenges is initiated. Maximum response to isoproterenol is achieved after each dose of the beta-adrenergic blocking agent by logarithmically increasing the dose of this agonist as receptor blockade develops. Each dose of isoproterenol is given approximately 5 minutes after the previous one and the overall dose range for isoproterenol is from 0.03-300 micrograms per kilogram body weight. Mean changes in the resting levels of the cardiovascular variables (heart rate, contractile force, and mean arterial blood pressure) due to the administration of each agent (which is taken as a measure of the inherent drug effect) is determined and statistically compared using the Student's test.

[2] = test system: Spontaneous Hypertensive Rat; test: lowering of blood pressure and heart rate in the spontaneously hypertensive rat (SHR); format: in vivo; conditions: for ED (40 mm Hg) / ED (10%): Rattus norvegicus, 4 h; for ED (40 mm Hg): read-out: Dose which lowers blood pressure by 40 mm Hg; for ED (10%): read-out: Dose which lowers heart rate by 10%; for reduction of heart rate / reduction of systolic blood pressure: doses of 50-200 mg./kg., 4 hours (FIG. 1, FIG. 2)
Method: FIG. 1 constitutes a dose-response graph of blood pressure and heart rate changes determined in the spontaneous hypertensive rat 4 hours after orally administered 4'-[1-hydroxy-2-[(1 -phenoxyethyl)amino]ethyl]methanesulfonanilide (Compound A). Blood pressure changes at doses of 50, 100, and 200 mg./kg. body weight are given in millimeters of mercury and are represented by circles (-0 -) with percent change in heart rate represented by squares (- -).
FIG. 2 constitutes a dose-response graph of blood pressure and heart rate changes similar to that of FIG. 1 for 4-[2-( 1-phenoxy-2-propylamino)-1-hydroxyethyl]methanesulfonanilide (Compound B).
Another in vivo animal experiment considered predictive of antihypertensive utility by those skilled in the art is the lowering of blood pressure in an inbred strain of spontaneously hypertensive rat (SHR) established by Okamoto and Aoki. In this test, systolic blood pressure and heart rate determinations are made immediately before the animals are orally dosed to provide control values and subsequently thereafter at 4 and 24-hour periods to determine drug effect. Various doses of test drug are administered and a dose-response graph obtained by plotting (on semi-log paper) the observed change (mm Hg) in systolic blood pressure and percent change in heart rate as […]. […] Values set forth in Table II below are taken from FIGS. 1 and 2.

mammals = test: general statement on heart rate at effective antihypertensive doses; format: in vivo; conditions: for change in heart rate: at effective antihypertensive or hypotensive doses
beta-receptor = conditions: isolated guinea pig tracheal spiral; Uloth et al., J. Med. Chem. 9, 88-97 (1966); cited from earlier work
[3] = acute toxicity in rats (oral LD50); conditions: rat, in vivo, hydrochloride
[4] = acute toxicity in mice (LD50); conditions: mouse, in vivo, hydrochloride
[5] = 0.3 mg/kg i.v., + = increase from control (footnote c)

SMILES | Absolute Change From Control in Contractile Force (CF) ([1]; 0.3 mg/kg i.v.) [gm] | Absolute Change From Control in Heart Rate (HR) ([1]; 0.3 mg/kg i.v.) [bpm] | Absolute Change From Control in Mean Arterial Blood Pressure (MABP) [1, 5] | Absolute Change From Control in Contractile Force (CF) ([1]; 1.0 mg/kg i.v.) [gm] | Absolute Change From Control in Heart Rate (HR) ([1]; 1.0 mg/kg i.v.) [bpm] | Absolute Change From Control in Mean Arterial Blood Pressure (MABP) ([1]; 1.0 mg/kg i.v.) [mm Hg] | Absolute Change From Control in Contractile Force (CF) ([1]; 3.0 mg/kg i.v.) [gm] | Absolute Change From Control in Heart Rate (HR) ([1]; 3.0 mg/kg i.v.) [bpm] | Absolute Change From Control in Mean Arterial Blood Pressure (MABP) ([1]; 3.0 mg/kg i.v.) [mm Hg] | Absolute Change From Control in Contractile Force (CF) ([1]; 10.0 mg/kg i.v.) [gm] | Absolute Change From Control in Heart Rate (HR) ([1]; 10.0 mg/kg i.v.) [bpm] | Absolute Change From Control in Mean Arterial Blood Pressure (MABP) ([1]; 10.0 mg/kg i.v.) [mm Hg] | effect on mean arterial blood pressure ([1]; doses of 0.3 to 1.0 mg./kg.) | ED (40 mm Hg) ([2]; oral, taken from FIGS. 1 and 2) [mg/kg] | ED (10%) ([2]; oral, taken from FIGS. 1 and 2) [mg/kg] | reduction of heart rate ([2]; oral) | reduction of systolic blood pressure ([2]; oral) | Percent decrease in heart rate at dose lowering blood pressure by 40 mm Hg ([2]; oral, taken from FIGS. 1 and 2) [%] | change in heart rate (mammals) | other results
CS(=O)(=O)Nc1ccc(C(O)CNCCOc2ccccc2)cc1 (stereo not drawn) [Compound A, 4'-[1-hydroxy-2-[(2-phenoxyethyl)amino]ethyl]methanesulfonanilide] | 8 ± 6 | 22 ± 4 | 17 ± 3 mm Hg | 11 ± 5 | 32 ± 5 | 12 ± 3 | 11 ± 5 | 38 ± 6 | 16 ± 4 | 17 ± 7 | 38 ± 6 | 34 ± 7 | effectively reduces mean arterial blood pressure | 165 | 150 | 2-12% | 22-43 mm Hg | 11 | little or no effect on heart rate | Absolute Change From Control in Contractile Force (CF) ([1]; 0.1 mg/kg i.v.): 9 ± 6 gm; Absolute Change From Control in Heart Rate (HR) ([1]; 0.1 mg/kg i.v.): 18 ± 4 bpm; Absolute Change From Control in Mean Arterial Blood Pressure (MABP) ([1]; 0.1 mg/kg i.v.): 11 ± 1 mm Hg; reduction in heart rate ([1]; dose of 0.1 mg./kg.): 12%; bradycardia liability relative to Compound B ([2]; at doses sufficient to reduce blood pressure by 40 mm Hg): about 50%; Percent decrease in blood pressure at dose lowering heart rate by 10% ([2]; oral, taken from FIGS. 1 and 2): 38%; change in heart rate (mammals; listed as compound of the instant invention): little or no significant change in heart rate; effect on blood pressure (mammals; effective dose): reduces blood pressure
CC(COc1ccccc1)NCC(O)c1ccc(NS(C)(=O)=O)cc1 (stereo not drawn) [Compound B, 4-[2-(1-phenoxy-2-propylamino)-1-hydroxyethyl]methanesulfonanilide, reference compound] | 6 ± 7 | 29 | +1 ± 5 mm Hg | 4 ± 7 | 39 ± 7 | 2 ± 6 | 4 ± 7 | 54 ± 7 | 10 ± 8 | 6 ± 9 | 72 ± 9 | 28 ± 14 | no significant effect | 100 | 18 | 17-25% | 18-64 mm Hg | 21 | substantial decrease in heart rate | beta-receptor blocking activity relative to dichloroisoproterenol (beta-receptor): four times the activity of dichloroisoproterenol; reduction in heart rate ([1]; dose of 3 mg./kg.): 33%; effect on heart rate (bradycardia) ([1]; doses of 0.3 to 1.0 mg./kg.): pronounced bradycardia; decrease in blood pressure at dose lowering heart rate by 10% (in words) ([2]; oral, taken from FIGS. 1 and 2): no significant; also recorded: no effect on blood pressure
CS(=O)(=O)Nc1ccc(C(O)CNCCOc2ccccc2)cc1.Cl (stereo not drawn) [4'-[1-Hydroxy-2-[(2-phenoxyethyl)amino]ethyl]methanesulfonanilide Hydrochloride] |  |  |  |  |  |  |  |  |  |  |  |  |  |  |  |  |  |  |  | LD50 ([3]; female rat): 1950 mg/kg; LD50 ([3]; male rat): 3550 mg/kg; LD50 ([4]; ip, intraperitoneal, read-out: intraperitoneal LD50): 273 mg/kg; LD50 ([4]; oral, read-out: oral LD50): 1920 mg/kg
